Series [1] deals with MLLr leukemia cell line MV4-11. Nature of the series: Cell proliferation assay MV4;11 (CellTiter-Glo, 72 hours). The format is cell-based. The conditions noted are these: Homo sapiens; MV4-11 cells, 72 hours, CellTiter-Glo; read-out: MV4; 11 IC50. As to the method: Compounds were evaluated for its capacity to inhibit the proliferation of the MLLr leukemia cell line MV4-11 that harbors an MLL1-AF4 fusion protein. MV4-11 cells were cultured for 72 hours with limiting dilutions of compounds and viability was measured using CellTiter-Glo.
Compounds were dissolved to obtain as 10 mM solution in DMSO. The stock was diluted 1:5 to the top concentration of 2 mM in 100% DMSO. For IC50 determination, serial 1:3.16 dilutions were prepared in 100% DMSO by diluting 20 μL into 43.5 μL of DMSO for 8 concentrations. Each prepared DMSO solution were further diluted 1:500 in the cell culture media to obtain the 2× dosing solutions. The final concentrations of tested compounds in the cell culture media ranged from 0.632 nM to 2000 nM.
MV4-11 cells were cultured in IMDM with 10% FBS and 1× Penicillin-Streptomycin at 5% CO2 and 37° C. A cell suspension was prepared containing 15,000 cells/ml in the culture medium and 100 μL of this suspension was added per well to a 96-well cell culture plate. Then, 100 μL of 2× dosing media containing test compounds were added bringing the total volume to 200 μL. These cells were cultured for 72 hours at 37° C. and 5% CO2 in a humidified incubator.
After 72 hours, the cultured cells were mixed and 100 μL was transferred to a 96-well black plate. Cell Titer Glo (100 μl) was then added to this plate. The plate was mixed with shaking for 15 mins at RT, the luminescence was then measured using Tecan Spark 20M spectrophotometer. Cell Viability (%) was determined by RLU of test/RLU average vehicle control*100 and % max inhibition was determined by 100−(% cell viability remaining at the top concentration of compound).
(In ATP-based viability assays light output follows the ATP content of the culture.)

The next series addresses hERG (Homo sapiens, UniProt Q12809). Nature of the series: Patch clamp assay (hERG tail currents, whole-cell). Background: In patch-clamp work, channel activity is measured electrically.

Chain of hERG (Q12809 whole entry): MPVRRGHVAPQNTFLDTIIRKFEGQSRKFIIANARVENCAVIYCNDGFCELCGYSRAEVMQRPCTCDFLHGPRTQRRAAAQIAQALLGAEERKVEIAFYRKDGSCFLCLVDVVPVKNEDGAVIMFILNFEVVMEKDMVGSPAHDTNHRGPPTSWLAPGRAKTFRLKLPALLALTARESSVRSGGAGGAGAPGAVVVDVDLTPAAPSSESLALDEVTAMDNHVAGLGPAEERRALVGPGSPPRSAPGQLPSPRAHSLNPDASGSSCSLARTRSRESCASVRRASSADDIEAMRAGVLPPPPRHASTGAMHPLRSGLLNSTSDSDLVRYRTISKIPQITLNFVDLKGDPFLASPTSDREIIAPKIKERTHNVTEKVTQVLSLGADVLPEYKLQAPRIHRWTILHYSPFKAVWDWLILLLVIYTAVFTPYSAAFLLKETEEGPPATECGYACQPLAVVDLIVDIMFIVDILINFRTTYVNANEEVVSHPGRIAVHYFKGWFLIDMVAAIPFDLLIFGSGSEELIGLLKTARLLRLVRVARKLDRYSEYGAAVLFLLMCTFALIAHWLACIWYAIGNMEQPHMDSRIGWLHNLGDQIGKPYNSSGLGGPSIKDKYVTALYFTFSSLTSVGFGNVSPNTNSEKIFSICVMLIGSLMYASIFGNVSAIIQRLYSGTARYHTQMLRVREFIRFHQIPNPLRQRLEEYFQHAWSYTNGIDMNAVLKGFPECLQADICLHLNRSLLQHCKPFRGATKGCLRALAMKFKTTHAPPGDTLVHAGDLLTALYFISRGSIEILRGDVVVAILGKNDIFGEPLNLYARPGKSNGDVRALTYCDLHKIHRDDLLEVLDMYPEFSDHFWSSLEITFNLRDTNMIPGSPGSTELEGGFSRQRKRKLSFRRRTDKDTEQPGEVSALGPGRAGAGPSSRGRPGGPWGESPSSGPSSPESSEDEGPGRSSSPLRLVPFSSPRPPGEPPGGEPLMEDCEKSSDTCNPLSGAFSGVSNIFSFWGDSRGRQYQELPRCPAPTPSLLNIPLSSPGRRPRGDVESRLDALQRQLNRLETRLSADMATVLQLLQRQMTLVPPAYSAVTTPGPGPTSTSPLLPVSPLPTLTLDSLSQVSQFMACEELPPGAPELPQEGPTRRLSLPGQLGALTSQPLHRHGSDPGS

In the case of `CC(C)N(C(=O)c1cc(F)ccc1Oc1cncnc1N1CC2(CCN(C[C@@H]3CC[C@@H](NS(=N)(=O)c4ccccc4)CO3)CC2)C1)C(C)C` (mixture of isomers) [Example 228, 5-Fluoro-N,N-diisopropyl-2-((4-(7-(((2S,5R)-5-(phenylsulfonoamidimidamido)tetrahydro-2H-pyran-2-yl)methyl)-2,7-diazaspiro[3.5]nonan-2-yl)pyrimidin-5-yl)oxy)benzamide], in series [1], the IC50 was below 100 nM.
With `CC[S@@](=N)(=O)N[C@@H]1CC[C@@H](CN2CCC3(CC2)CN(c2ncncc2Oc2ccc(F)cc2C(=O)N(C(C)C)C(C)C)C3)OC1` (single isomer, unassigned) [Example 226], the IC50 in series [1] lay in the range of 100 to 1000 nM.
The same measure, in the same setting: as for `CC[S@](=N)(=O)N[C@@H]1CC[C@@H](CN2CCC3(CC2)CN(c2ncncc2Oc2ccc(F)cc2C(=O)N(C(C)C)C(C)C)C3)OC1` (single isomer, unassigned) [Example 227], the figure is below 100 nM; as for `CC(C)N(C(=O)c1cc(F)ccc1Oc1cncnc1N1CC2(CCN(C[C@@H]3CC[C@@H](N[S@@](=N)(=O)c4ccccc4)CO3)CC2)C1)C(C)C` (single isomer, unassigned) [Example 229], below 100 nM; as for `CC(C)N(C(=O)c1cc(F)ccc1Oc1cncnc1N1CC2(CCN(C[C@@H]3CC[C@@H](N[S@](=N)(=O)c4ccccc4)CO3)CC2)C1)C(C)C` (single isomer, unassigned) [Example 230], below 100 nM.
Take `CCS(=O)(=O)N[C@@H]1CC[C@@H](CN2CCC3(CC2)CN(c2ncncc2Oc2ccc(F)cc2C(=O)N(C(C)C)[C@@H]2CC[C@H]2O)C3)OC1` (single isomer, unassigned) [Example 256]: the IC50 in series [1] is below 100 nM.
Turning to `CCS(=O)(=O)N[C@@H]1CC[C@@H](CN2CCC3(CC2)CN(c2ncncc2Oc2ccc(F)cc2C(=O)N(C(C)C)[C@H]2CC[C@@H]2O)C3)OC1` (single isomer, unassigned) [Example 257], the IC50 in series [1] is 100 to 1000 nM.
Still for that read-out and setting: as for `CC(C)N(C)C(=O)c1cc(F)ccc1Oc1cncnc1N1CC2(CCN(C[C@@H]3CC[C@@H](NS(=O)(=O)c4ccn(C)n4)CO3)CC2)C1` [Example 53, Fluoro-N-isopropyl-N-methyl-2-((4-(7-(((2S,5R)-5-((1-methyl-1H-pyrazole)-3-sulfonamido)tetrahydro-2H-pyran-2-yl)methyl)-2,7-diazaspiro[3.5]nonan-2-yl)pyrimidin-5-yl)oxy)benzamide], the figure is below 100 nM; as for `Cc1nc(S(=O)(=O)N[C@@H]2CC[C@@H](CN3CCC4(CC3)CN(c3ncncc3Oc3ccc(F)cc3C(=O)N(C)C(C)C)C4)OC2)cs1` [Example 54, 5-Fluoro-N-isopropyl-N-methyl-2-((4-(7-(((2S,5R)-5-((2-methylthiazole)-4-sulfonamido)tetrahydro-2H-pyran-2-yl)methyl)-2,7-diazaspiro[3.5]nonan-2-yl)pyrimidin-5-yl)oxy)benzamide], below 100 nM.
As to `CCN(C(=O)c1cc(F)ccc1Oc1cncnc1N1CC2(CCN(C[C@@H]3CC[C@@H](NS(=O)(=O)C4CCOCC4)CO3)CC2)C1)C(C)C` [Example 67, N-Ethyl-5-fluoro-N-isopropyl-2-((4-(7-(((2S,5R)-5-((tetrahydro-2H-pyran)-4-sulfonamido)tetrahydro-2H-pyran-2-yl)methyl)-2,7-diazaspiro[3.5]nonan-2-yl)pyrimidin-5-yl)oxy)benzamide], the IC50 in series [1] is below 100 nM.
Still for that read-out and setting: as for `CCN(C(=O)c1cc(F)ccc1Oc1cncnc1N1CC2(CCN(C[C@@H]3CC[C@@H](NS(=O)(=O)N4CC(F)(F)C4)CO3)CC2)C1)C(C)C` [Example 70, 2-((4-(7-(((2S,5R)-5-((3,3-Difluoroazetidine)-1-sulfonamido)tetrahydro-2H-pyran-2-yl)methyl)-2,7-diazaspiro[3.5]nonan-2-yl)pyrimidin-5-yl)oxy)-N-ethyl-5-fluoro-N-isopropylbenzamide], the figure is below 100 nM; as for `CCN(C(=O)c1cc(F)ccc1Oc1cncnc1N1CC2(CCN(C[C@@H]3CC[C@@H](NS(=O)(=O)c4ccc(=O)n(C)c4)CO3)CC2)C1)C(C)C` [Example 74, N-Ethyl-5-fluoro-N-isopropyl-2-((4-(7-(((2S,5R)-5-((1-methyl-6-oxo-1,6-dihydropyridine)-3-sulfonamido)tetrahydro-2H-pyran-2-yl)methyl)-2,7-diazaspiro[3.5]nonan-2-yl)pyrimidin-5-yl)oxy)benzamide], below 100 nM; as for `CC(C)N(C(=O)c1cc(F)ccc1Oc1cncnc1N1CC2(CCN(C[C@@H]3CC[C@@H](NS(=O)(=O)C4CCOCC4)CO3)CC2)C1)C(C)C` [Example 79], below 100 nM.
Consider `CC(C)N(C(=O)c1cc(F)ccc1Oc1cncnc1N1CC2(CCN(C[C@@H]3CC[C@@H](NS(=O)(=O)c4ccc(=O)n(C)c4)CO3)CC2)C1)C(C)C` [Example 92, 5-Fluoro-N,N-diisopropyl-2-((4-(7-(((2S,5R)-5-((1-methyl-6-oxo-1,6-dihydropyridine)-3-sulfonamido)tetrahydro-2H-pyran-2-yl)methyl)-2,7-diazaspiro[3.5]nonan-2-yl)pyrimidin-5-yl)oxy)benzamide], for which, in series [1], the IC50 is below 100 nM.
Still for that read-out and setting: as for `CC(C)N(CC(F)F)C(=O)c1cc(F)ccc1Oc1cncnc1N1CC2(CCN(C[C@@H]3CC[C@@H](NS(=O)(=O)C4CCOCC4)CO3)CC2)C1` [Example 98, N-(2,2-Difluoroethyl)-5-fluoro-N-isopropyl-2-((4-(7-(((2S,5R)-5-((tetrahydro-2H-pyran)-4-sulfonamido)tetrahydro-2H-pyran-2-yl)methyl)-2,7-diazaspiro[3.5]nonan-2-yl)pyrimidin-5-yl)oxy)benzamide], the figure is below 100 nM; as for `CCn1cc(S(=O)(=O)N[C@@H]2CC[C@@H](CN3CCC4(CC3)CN(c3ncncc3Oc3ccc(F)cc3C(=O)N(CC(F)F)C(C)C)C4)OC2)cn1` [Example 106, N-(2,2-Difluoroethyl)-2-((4-(7-(((2S,5R)-5-((1-ethyl-1H-pyrazole)-4-sulfonamido)tetrahydro-2H-pyran-2-yl)methyl)-2,7-diazaspiro[3.5]nonan-2-yl)pyrimidin-5-yl)oxy)-5-fluoro-N-isopropylbenzamide], below 100 nM.
Consider `CC(C)N(C(=O)c1cc(F)ccc1Oc1cncnc1N1CC2(CCN(C[C@@H]3CC[C@@H](NS(C)(=O)=O)CO3)CC2)C1)C1CC(F)(F)C1` [Example 112, N-(3,3-Difluorocyclobutyl)-5-fluoro-N-isopropyl-2-((4-(7-(((2S,5R)-5-(methylsulfonamido)tetrahydro-2H-pyran-2-yl)methyl)-2,7-diazaspiro[3.5]nonan-2-2-yl)pyrimidin-5-yl)oxy)benzamide], for which the IC50 in series [1] is below 100 nM.
`Cc1nc(S(=O)(=O)N[C@@H]2CC[C@@H](CN3CCC4(CC3)CN(c3ncncc3Oc3ccc(F)cc3C(=O)N(C(C)C)[C@@H]3CCOC3)C4)OC2)cs1` [Example 133, 5-Fluoro-N-isopropyl-2-((4-(7-(((2S,5R)-5-((2-methylthiazole)-4-sulfonamido)tetrahydro-2H-pyran-2-yl)methyl)-2,7-diazaspiro[3.5]nonan-2-yl)pyrimidin-5-yl)oxy)-N-((R)-tetrahydrofuran-3-yl)benzamide]: in series [1], the IC50 was below 100 nM.
Turning to `CC(C)N(C(=O)c1cc(F)ccc1Oc1cncnc1N1CC2(CCN(C[C@@H]3CC[C@@H](NS(=O)(=O)N(C)C)CO3)CC2)C1)C1COC1` [Example 249, 2-((4-(7-(((2S,5R)-5-((N,N-Dimethylsulfamoyl)amino)tetrahydro-2H-pyran-2-yl)methyl)-2,7-diazaspiro[3.5]nonan-2-yl)pyrimidin-5-yl)oxy)-5-fluoro-N-isopropyl-N-(oxetan-3-yl)benzamide], on hERG (30 μM compound), the “hERG % Remaining” value is given as “+++ (≥66%)”.
Consider `CCS(=O)(=O)N[C@@H]1CC[C@@H](CN2CCC3(CC2)CN(c2ncncc2Oc2ccc(F)cc2C(=O)N(C(C)C)[C@@H]2CC[C@@H]2O)C3)OC1` [Example 258, 2-((4-(7-(((2S,5R)-5-(Ethylsulfonamido)tetrahydro-2H-pyran-2-yl)methyl)-2,7-diazaspiro[3.5]nonan-2-yl)pyrimidin-5-yl)oxy)-5-fluoro-N-((1R,2S)-2-hydroxycyclobutyl)-N-isopropylbenzamide], for which the “hERG % Remaining” value on hERG (10 μM compound) was “+++ (≥66%)”; on hERG (30 μM compound), “++ (233% and ≤66%)”.
In the case of `CCN(C(=O)c1cc(F)ccc1Oc1cncnc1N1CC2(CCN(C[C@H]3CC[C@H](NS(=O)(=O)CC)CC3)CC2)C1)C(C)C` [SNDX-5613], the “hERG % Remaining” value at hERG (1 μM compound) was “+++ (≥66%)”; at hERG (3 μM compound) it was “+++ (≥66%)”; on hERG (10 μM compound) it was “++ (233% and ≤66%)”; on hERG (30 μM compound) it was “++ (233% and ≤66%)”; at hERG (100 μM compound), “+ (<33%)”. Moreover, the “hERG IC50 (μM)” value at hERG (hERG stably transfected HEK 293 cells) is recorded as “+ (<25 PM)”.

For the origin of these results see patent US20240400564A1 (Syndax Pharmaceuticals, Inc, priority 2021, published 2024).
